# Marks after values point to notes of the source that are not given here.
# Assays:
# [1] = tested on: tail flick response in mice after immersion in 55° C. water bath; assay: Tail-flick test; format: in vivo
# Experimental: (§1) Experiments in mice were performed on C57BL/6 male mice (Janvier, Le-Genest-St-Isle, France) weighting 26-35 g, housed in individual cages with food and water ad libitum and kept in a 12 hours/12 hours light-dark cycle. All animal experimentations were carried out in accordance with the rules of the European Committee Council Directive of Nov. 24, 1986 (86/609/EEC) and all procedures were approved by the local department of the veterinarian services for the use and care of animals (agreement #380612). All efforts were made to minimize animal suffering and reduce the number of animals used in each series of experiments.
# The tail-flick test was carried out according to the method described by D'Amour and Smith. This involved immersing extreme 3 cm of the mice's tail in water bath containing water at a temperature of 55±0.5° C. […] The reaction time was recorded with a stopwatch. […] The reaction time of mice was taken at intervals of 15, 30 and 60 min after a latency period of 1 hour following the administration of the decoction and drugs.
# (§2) The protection percentage was calculated as the ratio (reaction time following tramadol administration−initial reaction time): initial reaction time.
# [2] = tested on: acetic acid-induced abdominal constrictions in mice; assay: Acetic acid induced abdominal constriction (writhing) test; format: in vivo
# Experimental: as §1
# One hour after oral administration of these substances, each animal was injected i.p. with 0.6% acetic acid in a volume of 10 ml/kg body weight. After acetic acid injection, the number of stretching or writhing responses per animal was recorded during 30 min after a latency period of 5 min. Inhibition was expressed in percentage.
# Data were analyzed by two-way Anova followed by Tukey's (HSD) multi-comparison test.
# [3] = tested on: hotplate-induced pain in mice; assay: Hotplate test; format: in vivo
# Experimental: as §1
# The apparatus consisted of a water bath in which was placed a metallic cylinder (14 cm diameter×10 cm height). The hot plate was maintained at 55±0.5° C. Each mouse (six per group) acted as its own control. One hour before treatment, the reaction time of each mouse (liking of the forepaws or jumping response) was measured twice with a 10 min interval. The average of the two readings was obtained as the initial reaction time.
# as §2
# [4] = tested on: formalin-induced pain; assay: Formaline-induced nociception (formalin test); format: in vivo, mice; conditions: 32 mg/kg p.o.
# Experimental: as §1
# The formalin test was carried out as described by Hunskaar and Hole (1987) with slight modifications. The negative control was treated with 0.9% NaCl. […] Other groups of mice were treated with methanolic fractions of Nauclea Latifolia (16, 40 or 80 mg/kg, p.o.), or purified tramadol isolated from Nauclea Latifolia (8, 16 and 32 mg/kg, p.o.). Pain was induced by injecting 50 μl of 2.5% formalin (40% formaldehyde in distilled water) in the right hind paw pad. […] The amount of time spent licking and biting the injected paw was indicative of pain and was recorded during the first 0-5 min (first phase), followed by the 15-30 min period (second phase). Data were analyzed by two-way Anova followed by Tukey's (HSD) multi-comparison test.
# [5] = tested on: glutamate-induced nociception in mice; assay: Glutamate-induced nociception; format: in vivo
# Experimental: as §1
# Animals were treated with the purified tramadol isolated from Nauclea Latifolia (8, 16 or 32 mg/kg, p.o.), dipyrone (60 mg/kg, p.o.) or 0.9% NaCl (p.o.) 1 hour before test. A volume of 20 μl of glutamate (30 μmol/paw) was injected intraplantarly in the ventral surface of the right hind paw. Animals were observed individually for 15 min following glutamate injection. The amount of time they spent licking the injected paw was recorded with a chronometer and was considered as indicative of nociception. Data were analyzed by two-way Anova followed by Tukey's (HSD) multi-comparison test.
smiles,measurement,setting,value
"CC(=O)Oc1ccccc1C(=O)O [Aspirin, reference compound]",Protection agains thermal nociception (%),"[1]; 150 mg/kg p.o., 15 min",6.4%
same,Protection agains thermal nociception (%),"[1]; 150 mg/kg p.o., 30 min",9.5%
same,Protection agains thermal nociception (%),"[1]; 150 mg/kg p.o., 60 min",7.1%
same,Acetic acid-induced writhing inhibition (%),[2]; 150 mg/kg p.o.,52.9%
same,Protection against thermal nociception (%),"[3]; 150 mg/kg p.o., 0.5 hr",1.7%
same,Protection against thermal nociception (%),"[3]; 150 mg/kg p.o., 1 hr",35.5* %
same,Protection against thermal nociception (%),"[3]; 150 mg/kg p.o., 2 hrs",2.2* %
same,Protection against thermal nociception (%),"[3]; 150 mg/kg p.o., 3 hrs",39.5* %
same,Protection against thermal nociception (%),"[3]; 150 mg/kg p.o., 4 hrs",8.5%
same,Protection against thermal nociception (%),"[3]; 150 mg/kg p.o., 5 hrs",10.6%
same,Protection against thermal nociception (%),"[3]; 150 mg/kg p.o., 6 hrs",3.5%
"COc1cccc([C@]2(O)CCCC[C@H]2CN(C)C)c1 (racemic) [F27 of N. latifolia, (±)-cis-2-dimethylaminomethyl-1-(3-methoxyphenyl)cyclohexanol]",Protection agains thermal nociception (%),"[1]; 8 mg/kg p.o., 15 min",7.7%
same,Protection agains thermal nociception (%),"[1]; 8 mg/kg p.o., 30 min",14.4* %
same,Protection agains thermal nociception (%),"[1]; 8 mg/kg p.o., 60 min",21.4* %
same,Protection agains thermal nociception (%),"[1]; 16 mg/kg p.o., 15 min",5.6%
same,Protection agains thermal nociception (%),"[1]; 16 mg/kg p.o., 30 min",34.3** %
same,Protection agains thermal nociception (%),"[1]; 16 mg/kg p.o., 60 min",42.9*** %
same,reduction of painful sensation due to tail immersion in warm water,"[1]; 32 mg/kg oral, after a latency period of 30 min",63.05%
same,Protection agains thermal nociception (%),"[1]; 32 mg/kg p.o., 15 min",18.7%
same,Protection agains thermal nociception (%),"[1]; 32 mg/kg p.o., 30 min",63.0*** %
same,dose dependence of reduction of painful sensation in tail immersion,"[1]; mouse, in vivo",dose-dependent
same,effect of naloxone on analgesic activity in tail-flick test,"[1]; mouse, in vivo",blocked by naloxone
same,"blockade of pain emanating from inflammation, second phase (15-30 min) of formalin test",[4],31.74%
same,"neurogenic-induced pain blockade, first phase (0-5 min) of formalin test",[4],64.07%
same,antinociception in glutamate-induced nociception,"[5]; 8, 16 or 32 mg/kg, p.o.",marked and dose-related antinociception
same,"mean ID50 (95% confidence limits), glutamate-induced nociception","[5]; p.o., 1 hour before test",21.17 (6.49-47.23)
same,counter effect of naloxone on acetic acid-induced writhing,[2]; FIG. 4,absence of counter effect of naloxone
same,bioactivity of HPLC fractions in the writhing test,"[2]; HPLC fractions of root bark extract, writhing test",peak of activity
same,"mean ID50 (95% confidence limits), acetic acid-induced abdominal constrictions",[2]; oral administration,14.13 (5.53-41.88) mg/kg
same,Protection against thermal nociception (%),"[3]; 8 mg/kg p.o., 0.5 hr",−2.2%
same,Protection against thermal nociception (%),"[3]; 8 mg/kg p.o., 1 hr",22.9%
same,Protection against thermal nociception (%),"[3]; 8 mg/kg p.o., 2 hrs",20.2* %
same,Protection against thermal nociception (%),"[3]; 8 mg/kg p.o., 3 hrs",50.6** %
same,Protection against thermal nociception (%),"[3]; 8 mg/kg p.o., 4 hrs",4.6%
same,Protection against thermal nociception (%),"[3]; 8 mg/kg p.o., 5 hrs",−0.2%
same,Protection against thermal nociception (%),"[3]; 8 mg/kg p.o., 6 hrs",−0.5%
same,Protection against thermal nociception (%),"[3]; 16 mg/kg p.o., 0.5 hr",1.9%
same,Protection against thermal nociception (%),"[3]; 16 mg/kg p.o., 1 hr",27.0* %
same,Protection against thermal nociception (%),"[3]; 16 mg/kg p.o., 2 hrs",21.3* %
same,Protection against thermal nociception (%),"[3]; 16 mg/kg p.o., 3 hrs",52.4** %
same,Protection against thermal nociception (%),"[3]; 16 mg/kg p.o., 4 hrs",6.5%
same,Protection against thermal nociception (%),"[3]; 16 mg/kg p.o., 5 hrs",−2.0%
same,Protection against thermal nociception (%),"[3]; 16 mg/kg p.o., 6 hrs",4.6%
same,Protection against thermal nociception (%),"[3]; 32 mg/kg p.o., 0.5 hr",1.9%
same,Protection against thermal nociception (%),"[3]; 32 mg/kg p.o., 1 hr",45.2** %
same,Protection against thermal nociception (%),"[3]; 32 mg/kg p.o., 2 hrs",50.9** %
same,Protection against thermal nociception (%),"[3]; 32 mg/kg p.o., 3 hrs",71.9*** %
same,Protection against thermal nociception (%),"[3]; 32 mg/kg p.o., 4 hrs",25.2* %
same,Protection against thermal nociception (%),"[3]; 32 mg/kg p.o., 5 hrs",21.3* %
same,Protection against thermal nociception (%),"[3]; 32 mg/kg p.o., 6 hrs",27.8* %
same,time at which increase in latency response reached maximal level,"[3]; 32 mg/kg, oral administration",3 h
same,effect of naloxone on antinociceptive effect in hot plate assay,"[3]; mouse, in vivo",Naloxone antagonized antinociceptive effect
"Cc1c(N(C)CS(=O)(=O)[O-])c(=O)n(-c2ccccc2)n1C.[Na+] [dipyrone, reference compound]",inhibition of glutamate-induced nociception,"[5]; dipyrone (60 mg/kg, p.o.)",70.30%
"CN1CC[C@]23c4c5ccc(O)c4O[C@H]2[C@@H](O)C=C[C@H]3[C@H]1C5 [Morphine, reference compound]",Protection agains thermal nociception (%),"[1]; 5 mg/kg s.c., 15 min",27.3%
same,Protection agains thermal nociception (%),"[1]; 5 mg/kg s.c., 30 min",62.1*** %
same,Protection agains thermal nociception (%),"[1]; 5 mg/kg s.c., 60 min",77.8*** %
same,Protection against thermal nociception (%),"[3]; 5 mg/kg s.c., 0.5 hr",7.4%
same,Protection against thermal nociception (%),"[3]; 5 mg/kg s.c., 1 hr",44.4** %
same,Protection against thermal nociception (%),"[3]; 5 mg/kg s.c., 2 hrs",46.8** %
same,Protection against thermal nociception (%),"[3]; 5 mg/kg s.c., 3 hrs",40.4** %
same,Protection against thermal nociception (%),"[3]; 5 mg/kg s.c., 4 hrs",43.6** %
same,Protection against thermal nociception (%),"[3]; 5 mg/kg s.c., 5 hrs",24.6* %
same,Protection against thermal nociception (%),"[3]; 5 mg/kg s.c., 6 hrs",17.1%
